Residue numbers refer to the chain shown, from its start. Where “and” joins values, the source holds several entries; their conditions need not be identical. Identical values can stand only once. Like-named read-outs stand apart in the source and are kept apart here.
Legend:
[1] = target: T1, FlAsH-reacted mCh-M2-FCM in CHO cells (Homo sapiens, UniProt P08172, INS166FLNCCPGCCMEP); test: FRET between FlAsH and mCherry in the sensor, ligand-dependent change in Eapp; format: cell-based; settings: ligand 1 mM
T1 sequence (P08172 with tags, fused parts or gaps): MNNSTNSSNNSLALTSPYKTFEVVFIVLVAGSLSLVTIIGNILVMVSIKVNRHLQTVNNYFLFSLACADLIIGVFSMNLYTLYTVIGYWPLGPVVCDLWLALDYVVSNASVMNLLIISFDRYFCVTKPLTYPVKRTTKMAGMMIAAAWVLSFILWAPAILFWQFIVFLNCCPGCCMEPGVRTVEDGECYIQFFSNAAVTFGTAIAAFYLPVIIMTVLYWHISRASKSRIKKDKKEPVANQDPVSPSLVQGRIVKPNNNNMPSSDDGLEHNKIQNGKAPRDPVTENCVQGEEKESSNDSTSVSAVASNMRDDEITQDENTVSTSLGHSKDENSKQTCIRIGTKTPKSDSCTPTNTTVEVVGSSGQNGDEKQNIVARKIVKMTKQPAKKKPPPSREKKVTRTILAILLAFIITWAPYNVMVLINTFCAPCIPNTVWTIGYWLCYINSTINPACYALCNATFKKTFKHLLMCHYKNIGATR

[2] = target: T2, eGFP-M2 solubilized in digitonin–cholate (Homo sapiens, UniProt P08172); test: Time-resolved fluorescence and fluorescence anisotropy of eGFP-tagged M2 receptor; settings: eGFP-M2 + carbachol 1 mM
T2 sequence (P08172 1-466): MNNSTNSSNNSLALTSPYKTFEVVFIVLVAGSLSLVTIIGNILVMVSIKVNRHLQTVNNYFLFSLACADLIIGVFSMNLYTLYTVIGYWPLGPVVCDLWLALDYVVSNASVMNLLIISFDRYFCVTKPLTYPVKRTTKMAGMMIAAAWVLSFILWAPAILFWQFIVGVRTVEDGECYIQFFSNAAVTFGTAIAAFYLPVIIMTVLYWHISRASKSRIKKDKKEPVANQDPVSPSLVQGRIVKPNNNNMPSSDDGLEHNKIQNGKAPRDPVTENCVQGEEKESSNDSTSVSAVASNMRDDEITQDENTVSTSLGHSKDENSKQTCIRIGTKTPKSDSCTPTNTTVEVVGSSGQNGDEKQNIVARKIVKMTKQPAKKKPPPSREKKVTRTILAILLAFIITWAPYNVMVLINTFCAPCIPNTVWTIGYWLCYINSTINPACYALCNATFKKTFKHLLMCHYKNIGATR

[3] = target: T3, M2 receptor monomers purified from Sf9 cells (Homo sapiens, UniProt P08172); format: binding
T3 sequence (P08172 1-466): T2 sequence (P08172 1-466)

[4] = target: T3, M2 receptor monomers purified from Sf9 cells; test: Effect of allosteric modulators on the binding of [3H]NMS to purified monomers
[5] = test system: M2 receptor in Sf9 membranes; settings: cited from earlier work
[6] = target: T4, copurified heteromer of M2-ECL2+ve and M2-D103A (Homo sapiens, UniProt P08172, D103A/D173R/E172K/E175K); test: Effect of gallamine on the binding of [3H]NMS to purified hetero-oligomers; settings: [3H]NMS 10 nM; 21 hr at 30°C
T4 construct: hexahistidine (His6) (N); made in house; host or cells: co-transfected CHO cells; purified on Ni2+-NTA and anti-FLAG resins
T4 sequence (P08172 1-466 E172K/D173R/E175K): T2 sequence (P08172 1-466) with E172K, D173R, E175K
T4 sequence (P08172 1-466 D103A): T2 sequence (P08172 1-466) with D103A

[7] = target: M2 receptor in membranes from CHO cells (Homo sapiens, UniProt P08172)
[8] = target: M2 receptors extracted from porcine sarcolemmal membranes (Sus scrofa, UniProt P06199)
Sequence of M2 receptors extracted from porcine sarcolemmal membranes (P06199 whole entry): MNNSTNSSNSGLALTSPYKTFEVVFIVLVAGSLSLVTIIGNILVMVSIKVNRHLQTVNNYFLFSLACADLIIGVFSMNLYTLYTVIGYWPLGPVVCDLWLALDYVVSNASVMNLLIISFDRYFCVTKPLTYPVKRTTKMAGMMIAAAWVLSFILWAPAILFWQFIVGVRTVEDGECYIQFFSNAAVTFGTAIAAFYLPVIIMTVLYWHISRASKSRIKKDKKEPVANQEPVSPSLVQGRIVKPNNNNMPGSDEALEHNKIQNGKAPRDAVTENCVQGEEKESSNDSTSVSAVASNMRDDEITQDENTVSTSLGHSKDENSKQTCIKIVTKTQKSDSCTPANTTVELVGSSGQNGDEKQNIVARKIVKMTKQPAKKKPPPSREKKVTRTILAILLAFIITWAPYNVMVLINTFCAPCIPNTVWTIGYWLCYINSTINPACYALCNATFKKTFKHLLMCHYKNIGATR

[9] = test system: M2 receptors (alanine for aspartic acid at position 103) in HEK293 membranes; settings: cited from earlier work
[10] = target: mCh-M2(D103A)-FCM (human) (UniProt P08172)
[11] = gallamine, [3H]NMS 10 nM, 21 h at 30 °C, n = 1

Compound: C[N+](C)(C)CCOC(N)=O [carbachol]
- ∆Eapp, mean change in FRET efficiency ± S.D. [1]: −21.6 ± 11.2%
- Fluorescence lifetime (τ) [2]: 2.5 ± 0.1 ns
- Rotational correlation time (φ) [2]: 43 ± 5 ns

Compound: CC[N+](CC)(CC)CCOc1cccc(OCC[N+](CC)(CC)CC)c1OCC[N+](CC)(CC)CC [gallamine]
- F1 [3]: 1.00
- F1 [4, 11]: 1.00
- nH(1) [4, 11]: 1.00 ± 0.06
- log K1 (Equation 2), dose-dependence of kobsd/k0 [5]: −5.99 ± 0.31
- log K2 (Equation 2), dose-dependence of kobsd/k0 [5]: −4.35 ± 0.03
- log K2 (Equation 2, n = 3) [6]: 4.29 ± 0.37

Compound: O=C1C[C@@H]2OCC=C3CN4CC[C@]56c7ccccc7N1[C@H]5[C@H]2[C@H]3C[C@H]46 [strychnine]
- F1 [4]: 1.00
- nH(1) [4]: 0.62 ± 0.07 and 1.23 ± 0.07
- F2 [7]: 2.21 ± 0.16
- nH(1) [7]: 0.72 ± 0.06 and 0.98 ± 0.14 and 1.20 ± 0.07
- nH(2) [7]: 1.44 ± 0.09 and 1.07 ± 0.08
- F2 [8]: 1.57 and 2

Compound: N-[^3H]methylscopolamine [[^3H]NMS]
- specific binding of radioligand [9]: prevent the specific binding

Compound: eGFP-M2 (from UniProt P08172 1-466) (receptor)
- NMS (1 μM)-dependent increase in the FRET efficiency between FlAsH and mCherry of the binding-deficient sensor in CHO cells that display eGFP, FlAsH and mCherry (percentage points) [10]: 5.3

From paper PMC4900804, “Allosteric modulation in monomers and oligomers of a G protein-coupled receptor” (eLife, 2016)
